From patent publication US20260083865A1, “PROSTATE SPECIFIC MEMBRANE ANTIGEN (PSMA) LIGANDS AND USE THEREOF” (priority 2022, published 2026)
Numbered stars: 1 amine (or outer) side, 2 acyl side, 3 side chain; on linkers, the order of the positions; unused ones are H or OH. Bridge positions count the residues as written; N and C are the ends. Square brackets hold non-standard residues; d marks the D form. Peptide text beside a SMILES is read from it. * marks the point of attachment. DOTA = O=C(O)CN1CCN(CC(=O)O)CCN(CC(=O)*)CCN(CC(=O)O)CC1; Phe(4-Cl) = N[C@@H](Cc1ccc(Cl)cc1)C(=O)O; X1 = O=C(CC1CCN([*:1])CC1)[*:2]; Tle = CC(C)(C)[C@H](N)C(=O)O; Propanoyl(3-OH) = O=C(CCO)*; αMeP = C[C@@]1(C(=O)O)CCCN1; AEEA = NCCOCCOCC(=O)O; Aib = CC(C)(N)C(=O)O; NHBu = CCCCN*

Experiments:
[1] = molecular target: T1, Fc-fusion protein of human PSMA (hPSMA-Fc) (Homo sapiens, UniProt Q04609); experiment: Surface plasmon resonance assay (Biacore T200, single cycle kinetic); format: binding; settings: pKD category for PSMA SPR activity assay, hPSMA-Fc, 25° C.; read-out: pKD CAT (converted)
T1 construct: purchased Acro Biosystems PSA-H5264
Summary of the method: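 hPSMA-Fc was captured (~1000 RU) on an Fc-binding-peptide CM5 chip, and compounds were run in single cycle kinetic mode at 25° C in HBST with 0.1% DMSO. Double-blank-corrected sensorgrams were fitted to a 1:1 Langmuir model to give KD, reported as pKD.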

[2] = molecular target: T2, PSMA-expressing C4-2 cells (Homo sapiens, UniProt Q04609); experiment: FACS binding assay (competition with 50 nM PSM-0183); settings: pIC50 category of FACS binding, C4-2 cells; read-out: pIC50 [C4-2] CAT (converted)
T2 construct: PSMA-expressing C4-2 cells (ATCC, Cat. No. CRL-3314) were cultured in RPMI-1640; host or cells: C4-2 cells
Summary of the method: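 C4-2 cells were incubated 1 h at 4 °C with 50 nM AF488-labelled peptide PSM-0183 plus increasing test compound concentrations, then washed twice in ice-cold buffer. Median fluorescence in the AF488 channel was read by flow cytometry. IC50/pIC50 was derived by 4PL fitting of MFI versus concentration.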

T2 sequence (Q04609 whole entry): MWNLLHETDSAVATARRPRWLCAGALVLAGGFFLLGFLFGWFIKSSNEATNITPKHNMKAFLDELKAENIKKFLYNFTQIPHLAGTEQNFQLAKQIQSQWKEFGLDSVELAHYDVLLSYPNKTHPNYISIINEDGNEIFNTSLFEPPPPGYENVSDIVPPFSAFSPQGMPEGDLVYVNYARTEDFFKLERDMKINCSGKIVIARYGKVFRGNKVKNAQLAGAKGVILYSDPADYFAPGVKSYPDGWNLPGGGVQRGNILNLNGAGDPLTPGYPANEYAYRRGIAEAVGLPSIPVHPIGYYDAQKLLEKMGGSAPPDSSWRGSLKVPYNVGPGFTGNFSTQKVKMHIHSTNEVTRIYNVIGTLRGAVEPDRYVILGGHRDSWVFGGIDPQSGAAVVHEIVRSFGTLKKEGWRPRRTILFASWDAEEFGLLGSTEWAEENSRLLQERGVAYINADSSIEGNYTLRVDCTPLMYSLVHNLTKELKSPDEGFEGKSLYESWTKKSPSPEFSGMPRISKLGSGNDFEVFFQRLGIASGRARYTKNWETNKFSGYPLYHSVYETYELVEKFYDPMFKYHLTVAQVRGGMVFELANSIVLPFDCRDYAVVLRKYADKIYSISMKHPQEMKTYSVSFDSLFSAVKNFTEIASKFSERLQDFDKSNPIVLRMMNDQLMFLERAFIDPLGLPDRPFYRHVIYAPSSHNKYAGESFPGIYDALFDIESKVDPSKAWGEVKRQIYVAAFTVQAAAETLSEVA
T1 sequence (Q04609 44-750 limits assumed): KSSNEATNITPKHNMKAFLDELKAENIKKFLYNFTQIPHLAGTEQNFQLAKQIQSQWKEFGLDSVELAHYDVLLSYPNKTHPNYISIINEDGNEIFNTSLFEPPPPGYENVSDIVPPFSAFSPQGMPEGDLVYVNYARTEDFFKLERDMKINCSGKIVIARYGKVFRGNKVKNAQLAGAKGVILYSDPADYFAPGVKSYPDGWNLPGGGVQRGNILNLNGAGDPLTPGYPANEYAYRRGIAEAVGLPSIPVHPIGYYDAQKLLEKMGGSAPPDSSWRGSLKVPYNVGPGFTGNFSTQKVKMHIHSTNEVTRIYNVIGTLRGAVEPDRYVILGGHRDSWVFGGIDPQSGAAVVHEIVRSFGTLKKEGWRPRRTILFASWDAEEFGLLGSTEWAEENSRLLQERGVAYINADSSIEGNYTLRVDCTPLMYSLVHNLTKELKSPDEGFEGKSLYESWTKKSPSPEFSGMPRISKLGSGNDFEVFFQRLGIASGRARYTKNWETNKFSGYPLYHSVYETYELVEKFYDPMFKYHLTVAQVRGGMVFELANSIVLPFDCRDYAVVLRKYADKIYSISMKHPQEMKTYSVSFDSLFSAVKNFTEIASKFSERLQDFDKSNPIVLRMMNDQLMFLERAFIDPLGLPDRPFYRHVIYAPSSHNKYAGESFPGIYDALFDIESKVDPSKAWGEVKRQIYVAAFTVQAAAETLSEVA

With C[C@@H](O)[C@H](NC(=O)[C@@H](NC(=O)[C@@H]1CSSC[C@H](NC(=O)[C@H](Cc2ccccc2)NC(=O)C(C)(C)NC(=O)[C@@H](NC(=O)COCCOCCNC(=O)CN2CCN(CC(=O)O)CCN(CC(=O)O)CCN(CC(=O)O)CC2)[C@@H](C)O)C(=O)N[C@@H](CCCCN)C(=O)N[C@@H](CCCNC(=N)N)C(=O)NC(C)(C)C(=O)N[C@@H](CC(N)=O)C(=O)N1)C(C)(C)C)C(N)=O [PSM-0505, DOTA-020c-Thr-Aib-Phe-[Cys-Lys-Arg-Aib-Asn-Cys]-Tle-Thr-NH2] ({DOTA-AEEA}-T[Aib]FCKR[Aib]NC[Tle]T-NH2; disulfide 4-9) the Kd [1] was under 12.6 nM and the IC50 [2] was under 200 nM.
CC(=O)NC(C)(C)C(=O)N[C@@H](Cc1ccccc1)C(=O)N[C@H]1CSSC[C@@H](C(=O)N[C@H](C(=O)N[C@H](C(=O)N[C@@H](CC(=O)O)C(N)=O)[C@@H](C)O)C(C)(C)C)NC(=O)[C@H](CC(N)=O)NC(=O)[C@H](C)NC(=O)[C@H](CCCNC(=N)N)NC(=O)[C@H](CCCCN)NC1=O [PSM-0506, Ac-Aib-Pho-[Cys-Lys-Arg-Ala-Asn-Cys]-Tle-Thr-Asp-NH2] (Ac-[Aib]FCKRANC[Tle]TD-NH2; disulfide 3-8) showed a Kd [1] of under 12.6 nM and an IC50 [2] of under 200 nM.
With C[C@@H](O)[C@H](NC(=O)[C@@H](NC(=O)[C@@H]1CSSC[C@H](NC(=O)[C@H](Cc2ccccc2)NC(=O)C(C)(C)NC(=O)CC2CCN(C(=O)CN3CCN(CC(=O)O)CCN(CC(=O)O)CCN(CC(=O)O)CC3)CC2)C(=O)N[C@@H](CCCCN)C(=O)N[C@@H](CCCNC(=N)N)C(=O)NC(C)(C)C(=O)N[C@@H](CC(N)=O)C(=O)N1)C(C)(C)C)C(N)=O [PSM-0507, DOTA-Cmp-Aib-Pho-[Cys-Lys-Arg-Aib-Asn-Cys]-Tle-Thr-NH2] ({DOTA}-[X1][Aib]FCKR[Aib]NC[Tle]T-NH2; disulfide 4-9) the Kd [1] was 12.6 to 126 nM and the IC50 [2] was under 200 nM.
For CC(=O)N[C@H](C(=O)N1CCC[C@@]1(C)C(=O)N[C@@H](Cc1ccccc1)C(=O)N[C@H]1CSSC[C@@H](C(=O)N[C@H](C(=O)N[C@H](C(N)=O)[C@@H](C)O)C(C)(C)C)NC(=O)[C@H](CC(N)=O)NC(=O)C(C)(C)NC(=O)[C@H](CCCNC(=N)N)NC(=O)[C@H](CCCCN)NC1=O)[C@@H](C)O [PSM-0508, Ac-Thr-Pam-Phe-[Cys-Lys-Arg-Aib-Asn-Cys]-Tle-Thr-NH2] (Ac-T[αMeP]FCKR[Aib]NC[Tle]T-NH2; disulfide 4-9), the Kd [1] was under 12.6 nM and the IC50 [2] was under 200 nM.
In the case of C[C@@H](O)[C@H](NC(=O)[C@@H](NC(=O)[C@@H]1CSSC[C@H](NC(=O)[C@H](Cc2ccc(Cl)cc2)NC(=O)C(C)(C)NC(=O)CCO)C(=O)N[C@@H](CCCCN)C(=O)N[C@@H](CCCNC(=N)N)C(=O)NC(C)(C)C(=O)N[C@@H](CC(N)=O)C(=O)N1)C(C)(C)C)C(=O)N1CCC(CC(=O)N[C@H](CCCCNC(=O)CN2CCN(CC(=O)O)CCN(CC(=O)O)CCN(CC(=O)O)CC2)C(N)=O)CC1 [PSM-0509, HPA-Aib-Pcf-[Cys-Lys-Arg-Aib-Asn-Cys]-Tle-Thr-Cmp-lys(DOTA)-NH2] ({Propanoyl(3-OH)}-[Aib][Phe(4-Cl)]CKR[Aib]NC[Tle]T[X1][dK](DOTA)-NH2; disulfide 3-8), the Kd [1] is reported as under 12.6 nM and the IC50 [2] is reported as under 200 nM.
CCCCNC(=O)[C@@H](NC(=O)[C@@H]1CSSC[C@H](NC(=O)[C@H](Cc2ccccc2)NC(=O)C(C)(C)NC(=O)[C@@H](NC(C)=O)[C@@H](C)O)C(=O)N[C@@H](CCCCN)C(=O)N[C@@H](CCCNC(=N)N)C(=O)NC(C)(C)C(=O)N[C@@H](CC(N)=O)C(=O)N1)C(C)(C)C [PSM-0510, Ac-Thr-Aib-Phe-[Cys-Lys-Arg-Aib-Asn-Cys]-Tle-NHBu] (Ac-T[Aib]FCKR[Aib]NC[Tle]-NHBu; disulfide 4-9) was tested, and the Kd [1] was under 12.6 nM and the IC50 [2] was under 200 nM.
